Earlier results on three compounds are cited in US12421507B2, “Methods and compositions for optochemical control of CRISPR-CAS9” (THE BROAD INSTITUTE, INC., priority 2018, dated 2025).

One data set has as its system dystrophin exon 51. As to conditions: across 48 weeks.
A further data set concerns mammalian DHFR (DHFRts). The note with it: cells expressing DHFRts.

As for `CC[C@H](C(=O)N1CCCC[C@H]1C(=O)O[C@H](CCc1ccc(OC)c(OC)c1)c1cccc(OCCN2CCOCC2)c1)c1cc(OC)c(OC)c(OC)c1` [Shield-1], the “binding to and stabilization of the DD” value with Mutants of human FKBP12 was “bind to and stabilize the DD in a dose-dependent manner”.
For eteplirsen, in the data set with dystrophin exon 51, the “average dystrophin positive fibers compared to baseline” value is listed as 47%.
Consider `CN(Cc1cnc2nc(N)nc(N)c2n1)c1ccc(C(=O)N[C@@H](CCC(=O)O)C(=O)O)cc1` [methotrexate], for which the “degradation of DHFRts” value in the data set on mammalian DHFR (DHFRts) is “inhibited degradation of the protein partially”.
